Key:
Assay type in all cases: in vivo
[1] = test system: Erysiphe graminis; test: Powdery Mildew of Wheat (Erysiphe graminis--ERYSGT); settings: wheat (cultivar Monon), 100 ppm spray to run off, inoculated after 24 hours; for pest or weed control at 100 ppm: Blumeria graminis, 1DP, read-out: control of plant disease, ERYSGT 1DP
Protocol: (§1) Compound Formulation: Compound formulation was accomplished by dissolving technical materials in acetone, with serial dilutions then made in acetone to obtain desired rates. Final treatment volumes were obtained by adding nine volumes 0.05% aqueous Tween-20 or Triton X-100, depending upon the pathogen.
Powdery Mildew of Wheat (Erysiphe graminis--ERYSGT): Wheat (cultivar Monon) was grown in a soilless peat-based potting mixture (Metromix) until the seedlings were 1-2 leaf (BBCH 12). These plants were then sprayed to run off with the test compound at a rate of 100 ppm. After 24 hours the test plants were inoculated with Erysiphe graminis by dusting spores from stock plants onto the test plants. The plants were then transferred to the greenhouse until disease developed on the untreated control plants.
(§2) the following table presents the activity of typical compounds of the present invention when evaluated in these experiments. The effectiveness of the test compounds in controlling disease was rated using the following scale: […]

[2] = test system: Leptosphaeria nodorum; test: Glume blotch of wheat (Leptosphaeria nodorum--LEPTNO); settings: wheat (cultivar Monon), 100 ppm spray to run off, inoculated after 24 hours; for pest or weed control at 100 ppm: Parastagonospora nodorum, 1DP, read-out: control of plant disease, LEPTNO 1DP
Protocol: as §1
(§3) Glume blotch of wheat (Leptosphaeria nodorum--LEPTNO): Wheat (cultivar Monon) was grown from seed in a soilless peat-based potting mixture (Metromix) until the seedlings were 1-2 leaf (BBCH 12). These plants were then sprayed to run off with the test compound at a rate of 100 ppm. After 24 hours the test plants were inoculated with an aqueous spore suspension of Leptosphaeria nodorum. The plants were then transferred to the greenhouse until disease developed on the untreated control plants.
as §2

[3] = test system: Phytophthora infestans; test: whole plant or invertebrate; settings: for pest or weed control at 100 ppm: Phytophthora infestans, 24 h, read-out: control of plant disease, PHYTIN 1DP; for control of plant disease, PHYTIN 1DP: tomatoes (cultivar Rutgers), 100 ppm spray to run off, inoculated after 24 hours
[4] = test system: Puccinia recondita; test: Brown rust (Puccinia recondita--PUCCRT); settings: wheat (cultivar Monon), 100 ppm spray to run off, inoculated after 24 hours; for pest or weed control at 100 ppm: Puccinia recondita, 1DP, read-out: control of plant disease, PUCCRT 1DP
Protocol: as §1
as §3, with “Brown rust (Puccinia recondita--PUCCRT):” for “Glume blotch of wheat (Leptosphaeria nodorum--LEPTNO):”, “[…]).” for “1-2 leaf (BBCH 12).”, “Puccinia recondita.” for “Leptosphaeria nodorum.”
as §2

Structure (SMILES)	pest or weed control at 100 ppm [1]	pest or weed control at 100 ppm [2]	pest or weed control at 100 ppm [3]	pest or weed control at 100 ppm [4]	control of plant disease, ERYSGT 1DP [1]	control of plant disease, LEPTNO 1DP [2]	control of plant disease, PHYTIN 1DP [3]	control of plant disease, PUCCRT 1DP [4]
CNC(=O)C(=NOC)c1ccccc1COc1ncc(-c2nc(C(F)(F)F)no2)cc1Cl [Example 68]	75 to 100%	75 to 100%	0 to 24%	75 to 100%	–	–	–	–
CNC(=O)C(=NOC)c1ccccc1COc1cccc(-c2nc(C(C)C)no2)n1 [Example 87]	75 to 100%	75 to 100%	75 to 100%	75 to 100%	–	–	–	–
CNC(=O)C(=NOC)c1ccccc1COc1ccc(-c2noc(C(F)(F)F)n2)cn1 [Example 16]	75 to 100%	0 to 24%	0 to 24%	75 to 100%	–	–	–	–
CCc1noc(-c2cnc(OCc3ccccc3C(=NOC)C(=O)NC)c(Cl)c2)n1 [Example 54]	75 to 100%	75 to 100%	75 to 100%	75 to 100%	–	–	–	–
CNC(=O)C(=NOC)c1ccccc1COc1ccc(-c2noc(CSc3ccccc3)n2)cn1 [Example 28]	75 to 100%	75 to 100%	75 to 100%	75 to 100%	–	–	–	–
CCCc1noc(-c2ccc(OCc3ccccc3C(=NOC)C(=O)NC)nc2)n1 [Example 74]	75 to 100%	0 to 24%	0 to 24%	75 to 100%	–	–	–	–
CNC(=O)C(=NOC)c1ccccc1COc1ccc(Cl)c(-c2nc(C(C)(C)C)no2)n1 [Example 82]	75 to 100%	75 to 100%	75 to 100%	75 to 100%	–	–	–	–
CCOC(=O)c1nc(-c2cnc(OCc3ccccc3C(=NOC)C(=O)NC)c(C)c2)oc1C [Example 52, Benzeneacetamide, 2-[[[3-methyl-5-(4-ethoxycarbonyl-5-methyl-oxazol-2-yl)-2-pyridinyl]oxy]methyl]-α-(methoxyimino)-N-methyl-]	25 to 74%	25 to 74%	75 to 100%	75 to 100%	–	–	–	–
CNC(=O)C(=NOC)c1ccccc1COc1ncc(-c2nc(CC(C)C)no2)cc1Cl [Example 77]	75 to 100%	75 to 100%	0 to 24%	75 to 100%	–	–	–	–
CCc1noc(-c2cccc(OCc3ccccc3C(=NOC)C(=O)NC)n2)n1 [Example 85]	–	–	–	–	+ (25-74% control of plant disease)	- (0-24% control of plant disease)	- (0-24% control of plant disease)	++ (75-100% control of plant disease)
CNC(=O)C(=NOC)c1ccccc1COc1ccc(-c2noc(COC)n2)cn1 [Example 25]	75 to 100%	25 to 74%	75 to 100%	75 to 100%	–	–	–	–
CNC(=O)C(=NOC)c1cccc(F)c1COc1ncc(-c2noc(C(F)(F)F)n2)cc1Cl [Example 32]	–	–	–	–	++ (75-100% control of plant disease)	+ (25-74% control of plant disease)	- (0-24% control of plant disease)	++ (75-100% control of plant disease)
CNC(=O)C(=NOC)c1ccccc1COc1ccc(-c2noc(C)n2)cn1 [Example 10]	75 to 100%	75 to 100%	0 to 24%	75 to 100%	–	–	–	–
CNC(=O)C(=NOC)c1ccccc1COc1ccc(-c2noc(C(C)(C)C)n2)cn1 [Example 9]	75 to 100%	75 to 100%	0 to 24%	75 to 100%	–	–	–	–
CNC(=O)C(=NOC)c1ccccc1COc1ncc(-c2cc(C(C)C)on2)cc1Cl [Example 38]	75 to 100%	75 to 100%	0 to 24%	75 to 100%	–	–	–	–
CNC(=O)C(=NOC)c1ccccc1COc1ncc(-c2noc(C(C)(C)C)n2)cc1Cl [Example 6, Benzeneacetamide, 2-[[[3-chloro-5-(5-t-butyl-1,2,4-oxadiazol-3-yl)-2-pyridinyl]oxy]methyl]-α-(methoxyimino)-N-methyl-]	75 to 100%	75 to 100%	75 to 100%	75 to 100%	–	–	–	–

Structure (SMILES)	pest or weed control at 100 ppm [1]	pest or weed control at 100 ppm [2]	pest or weed control at 100 ppm [3]	pest or weed control at 100 ppm [4]	control of plant disease, ERYSGT 1DP [1]	control of plant disease, LEPTNO 1DP [2]	control of plant disease, PHYTIN 1DP [3]	control of plant disease, PUCCRT 1DP [4]
CNC(=O)C(=NOC)c1ccccc1COc1ncc(-c2noc(C3CCCC3)n2)cc1Cl [Example 13]	75 to 100%	75 to 100%	0 to 24%	75 to 100%	–	–	–	–
O=C(NNC(=O)C1CC1)c1cnc(Cl)c(Cl)c1 [Example 19]	–	–	–	–	++ (75-100% control of plant disease)	++ (75-100% control of plant disease)	- (0-24% control of plant disease)	++ (75-100% control of plant disease)
CCc1cc(-c2cnc(OCc3ccccc3C(=NOC)C(=O)NC)c(Cl)c2)no1 [Example 39]	75 to 100%	75 to 100%	0 to 24%	75 to 100%	–	–	–	–
CNC(=O)C(=NOC)c1ccccc1COc1ncc(-c2noc(CSc3ccccc3)n2)cc1Cl [Example 24]	0 to 24%	75 to 100%	75 to 100%	75 to 100%	–	–	–	–
CNC(=O)C(=NOC)c1ccccc1COc1ncc(-c2noc(CC(C)(C)C)n2)cc1Cl [Example 17]	75 to 100%	75 to 100%	0 to 24%	75 to 100%	–	–	–	–
CNC(=O)C(=NOC)c1ccccc1COc1ncc(-c2noc(C(F)(F)F)n2)cc1Cl [Example 11]	75 to 100%	75 to 100%	0 to 24%	75 to 100%	–	–	–	–
CNC(=O)C(=NOC)c1ccccc1COc1ncc(-c2noc(C34CC5CC(CC(C5)C3)C4)n2)cc1Cl [Example 15]	75 to 100%	0 to 24%	75 to 100%	75 to 100%	–	–	–	–
CNC(=O)C(=NOC)c1ccccc1COc1ncc(-c2noc(CCCl)n2)cc1Cl [Example 26]	75 to 100%	75 to 100%	75 to 100%	75 to 100%	–	–	–	–
CNC(=O)C(=NOC)c1ccccc1COc1ccc(-c2nc(C3CCCCC3)no2)cn1 [Example 73]	75 to 100%	0 to 24%	25 to 74%	75 to 100%	–	–	–	–
CNC(=O)C(=NOC)c1ccccc1COc1ncc(-c2nc(C3CCCCC3)no2)cc1Cl [Example 72]	0 to 24%	0 to 24%	0 to 24%	75 to 100%	–	–	–	–
CNC(=O)C(=NOC)c1ccccc1COc1ncc(-c2cc(C(C)(C)C)on2)cc1Cl [Example 41]	75 to 100%	75 to 100%	0 to 24%	75 to 100%	–	–	–	–
CNC(=O)C(=NOC)c1ccccc1COc1cccc(-c2nc(C(F)(F)F)no2)n1 [Example 89]	0 to 24%	0 to 24%	75 to 100%	75 to 100%	–	–	–	–
CNC(=O)C(=NOC)c1ccccc1COc1ncc(-c2nc(C)no2)cc1Cl [Example 49, Benzeneacetamide, 2-[[[3-chloro-5-(3-methyl-1,2,4-oxadiazol-5-yl)-2-pyridinyl]oxy]methyl]-α-(methoxyimino)-N-methyl-]	75 to 100%	75 to 100%	0 to 24%	75 to 100%	–	–	–	–
CNC(=O)C(=NOC)c1ccccc1COc1ccc(-c2nc(C(C)C)no2)cn1 [Example 70]	75 to 100%	75 to 100%	0 to 24%	75 to 100%	–	–	–	–
CCc1nc(-c2cnc(OCc3ccccc3C(=NOC)C(=O)NC)c(Cl)c2)no1 [Example 36]	75 to 100%	75 to 100%	0 to 24%	75 to 100%	–	–	–	–

Source: patent US6133294A (priority 1999, dated 2000)
